Key:
Human FXa = biological target: T1, Human FXa (Homo sapiens, UniProt P00742); test: Measuring human FXa inhibitory action (chromogenic substrate S-2222); assay type: biochemical; conditions: Human FXa 0.019 U/ml, S-2222 0.4 mM, Tris-HCl buffer (pH 7.5), 37 °C, absorbance at 405 nm
T1 construct: purchased Enzyme Research Laboratories, Inc
Experimental: The outstanding FXa inhibitory activity of the compounds of the present invention can be verified by the following tests. 1) Measurement of Enzyme Inhibitory Action a) Measuring human FXa inhibitory action In vitro FXa inhibitory activity is measured in accordance with the method of Kettner et al., J. Biol. Chem., 1990, 265, 18289-18297. Human FXa (Enzyme Research Laboratories, Inc., 0.019 U/ml) is mixed with a test compound diluted with dimethyl sulfoxide (DMSO) at various concentrations and a synthesis substrate S-2222 (Chromogenix AB, 0.4 mM) and incubated in a Tris-HCl buffer (pH 7.5) at 37 °C while the absorbance at 405 nm is measured continuously. To calculate the FXa inhibitory activity of the test cmpound, the initial reaction velocity is compared with the value for a control containing no test compound. The FXa inhibitory activity of a test compound is usually expressed as IC50. The compounds of the present invention were measured for their FXa inhibitory activity by the above-described method and they had potencies between 1 nM and 1µm in terms of IC50. […]

rat plasma = test: Measuring extrinsic coagulation time (PT) in vitro in rat plasma; conditions: 37°C 3 minutes, thromboplastin reagent, concentration required to double the coagulation time
Experimental: The compounds synthesized in the Examples of the present invention had FXa inhibitory activities at least equal to that of the control compound. 2) Measurement of Anticoagulation Activity (in vitro) a) Measuring extrinsic coagulation time Thromboplastin time (PT) is measured in the presence of test compounds diluted at various concentrations. A test compound diluted with DMSO at various concentrations is mixed with rat plasma and incubated at 37°C for 3 minutes. Then, a thromboplastin reagent is added and the coagulation time is measured. The anticoagulation activity of the test compound is indicated in terms of the concentration required to double the coagulation time for the case where no test compound is added. […]

T1 sequence (P00742 235-488 limits assumed): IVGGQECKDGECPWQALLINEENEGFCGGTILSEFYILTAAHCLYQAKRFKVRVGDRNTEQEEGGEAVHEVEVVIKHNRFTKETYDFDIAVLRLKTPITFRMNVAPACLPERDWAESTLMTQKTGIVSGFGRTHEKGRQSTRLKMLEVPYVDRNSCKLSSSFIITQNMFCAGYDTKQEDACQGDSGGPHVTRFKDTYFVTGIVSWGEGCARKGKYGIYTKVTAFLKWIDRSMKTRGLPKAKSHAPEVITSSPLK
T1 sequence (P00742 41-179 partner limits assumed): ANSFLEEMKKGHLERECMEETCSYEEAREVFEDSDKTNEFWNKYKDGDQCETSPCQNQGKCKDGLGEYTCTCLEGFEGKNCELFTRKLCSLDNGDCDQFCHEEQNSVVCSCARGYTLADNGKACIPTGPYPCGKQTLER

For `O=C(C1CCN(c2ccncc2)CC1)N1CCN(S(=O)(=O)/C=C/c2ccc(Cl)cc2)CC1` [Control, 1-((E)-4-chlorostyrylsulfonyl)-4-[1-(4-pyridyl)piperidin-4-ylcarbonyl]piperazine, reference compound], the IC50 (Human FXa) was 150 nM.

`CCOC(=O)C1CN(S(=O)(=O)c2ccc3cc(Cl)ccc3c2)CC(=O)N1CC1CCN(c2ccncc2)CC1` (stereo not drawn) [Example 39, 4-(6-chloronaphthalen-2-ylsulfonyl)-6-ethoxycarbonyl-1-[1-(4-pyridyl)piperidin-4-ylmethyl]piperazin-2-one] was tested, and the IC50 (Human FXa) was 19 nM and the “PT Doubling Concentration” value (rat plasma) was 2.8 µM.

`O=C(O)C1CN(S(=O)(=O)c2ccc3cc(Cl)ccc3c2)CC(=O)N1CC1CCN(c2ccncc2)CC1` (stereo not drawn) [Example 40, 6-carboxy-4-(6-chloronaphthalen-2-ylsulfonyl)-1-[1-(4-pyridyl)piperidin-4-ylmethyl]piperazin-2-one] was tested, and the IC50 (Human FXa) was 7.4 nM and the “PT Doubling Concentration” value (rat plasma) was 2.7 µM.

Compound `NC(=O)C1CN(S(=O)(=O)c2ccc3cc(Cl)ccc3c2)CC(=O)N1CC1CCN(c2ccncc2)CC1` (stereo not drawn) [Example 46] has an IC50 (Human FXa) of 17 nM.

`O=C1CN(S(=O)(=O)c2ccc3cc(Cl)ccc3c2)CC(C=NO)N1CC1CCN(c2ccncc2)CC1` (stereo not drawn) [Example 47, 6-aldoximyl-4-(6-chloronaphthalen-2-ylsulfonyl)-1-[1-(4-pyridyl)piperidin-4-ylmethyl]piperazin-2-one] was tested, and the IC50 (Human FXa) was 13 nM.

In the case of `NCC1CN(S(=O)(=O)c2ccc3cc(Cl)ccc3c2)CC(=O)N1CC1CCN(c2ccncc2)CC1` (stereo not drawn) [Example 52, 6-aminomethyl-4-(6-chloronaphthalen-2-ylsulfonyl)-1-[1-(4-pyridyl)piperidin-4-ylmethyl]piperazin-2-one], the IC50 (Human FXa) is reported as 12 nM.

In the case of `CN(C)CC1CN(S(=O)(=O)c2ccc3cc(Cl)ccc3c2)CC(=O)N1CC1CCN(c2ccncc2)CC1` (stereo not drawn) [Example 54, 4-(6-chloronaphthalen-2-ylsulfonyl)-6-dimethylaminomethyl-1-[1-(4-pyridyl)piperidin-4-ylmethyl]piperazin-2-one], the IC50 (Human FXa) is reported as 8.5 nM.

Work on `CC(=O)NCC1CN(S(=O)(=O)c2ccc3cc(Cl)ccc3c2)CC(=O)N1CC1CCN(c2ccncc2)CC1` (stereo not drawn) [Example 55, 6-acetamidomethyl-4-(6-chloronaphthalen-2-ylsulfonyl)-1-[1-(4-pyridyl)piperidin-4-ylmethyl]piperazin-2-one] yielded an IC50 (Human FXa) of 7.4 nM.

In the case of `CCOC(=O)[C@H]1CN(S(=O)(=O)c2ccc3cc(Cl)ccc3c2)CC(=O)N1CC1CCN(c2ccncc2)CC1` [Example 60, (R)-4-(6-chloronaphthalen-2-ylsulfonyl)-6-ethoxycarbonyl-1-[1-(4-pyridyl)piperidin-4-ylmethyl]piperazin-2-one], the IC50 (Human FXa) is reported as 16 nM.

`CCOC(=O)[C@@H]1CN(S(=O)(=O)c2ccc3cc(Cl)ccc3c2)CC(=O)N1CC1CCN(c2ccncc2)CC1` [Example 61, (S)-4-(6-chloronaphthalen-2-ylsulfonyl)-6-ethoxycarbonyl-1-[1-(4-pyridyl)piperidin-4-ylmethyl]piperazin-2-one] was tested, and the IC50 (Human FXa) was 70 nM.
